Measured values from ChEMBL document CHEMBL1765000, “Synthesis and biological evaluation of 1-substituted-3(5)-(6-methylpyridin-2-yl)-4-(quinolin-6-yl)pyrazoles as transforming growth factor-β type 1 receptor kinase inhibitors” (Bioorg Med Chem, 2011).

Experiments:
[1] = molecular target: T1, TGF-beta receptor type-1 (Homo sapiens, UniProt P36897); test: Inhibition of human recombinant GST-fused ALK5 expressed in Sf9 cells
T1 sequence (P36897 whole entry): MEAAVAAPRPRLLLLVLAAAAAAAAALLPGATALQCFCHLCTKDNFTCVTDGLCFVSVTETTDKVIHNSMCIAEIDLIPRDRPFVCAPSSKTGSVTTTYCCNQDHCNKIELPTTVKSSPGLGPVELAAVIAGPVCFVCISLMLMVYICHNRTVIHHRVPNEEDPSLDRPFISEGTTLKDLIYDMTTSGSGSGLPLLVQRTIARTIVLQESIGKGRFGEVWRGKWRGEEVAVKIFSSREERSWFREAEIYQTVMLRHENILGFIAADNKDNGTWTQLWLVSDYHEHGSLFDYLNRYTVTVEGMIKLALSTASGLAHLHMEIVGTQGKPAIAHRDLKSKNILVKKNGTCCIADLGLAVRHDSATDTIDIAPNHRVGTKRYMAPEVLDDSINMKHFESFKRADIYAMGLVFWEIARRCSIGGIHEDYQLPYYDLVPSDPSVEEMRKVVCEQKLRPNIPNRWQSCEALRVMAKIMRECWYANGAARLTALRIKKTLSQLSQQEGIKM

[2] = molecular target: Mitogen-activated protein kinase 14 (Homo sapiens, UniProt Q16539); test: Inhibition of human recombinant p38alpha expressed in Escherichia coli using ATF2 as a substrate by radioisotopic protein kinase assay
Chain of Mitogen-activated protein kinase 14 (Q16539 whole entry): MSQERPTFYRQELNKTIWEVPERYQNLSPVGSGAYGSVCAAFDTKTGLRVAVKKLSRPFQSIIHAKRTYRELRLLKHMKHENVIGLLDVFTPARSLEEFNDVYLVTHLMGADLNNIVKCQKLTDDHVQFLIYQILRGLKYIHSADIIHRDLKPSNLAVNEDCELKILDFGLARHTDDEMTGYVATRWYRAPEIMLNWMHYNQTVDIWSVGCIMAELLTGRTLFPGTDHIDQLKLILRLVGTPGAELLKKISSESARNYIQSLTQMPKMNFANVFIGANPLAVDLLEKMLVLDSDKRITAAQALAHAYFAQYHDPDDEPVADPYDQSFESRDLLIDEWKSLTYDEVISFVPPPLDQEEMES

[3] = molecular target: T2, TGF-beta receptor type-1 (Homo sapiens) (UniProt P36897); test: Inhibition of human recombinant ALK5 activity in human HaCaT cells assessed as inhibition of TGFbeta-induced p3TP-luciferase reporter activity; type: cell-based
T2 sequence (whole entry): T1 sequence (P36897 whole entry)

Row | SMILES | IC50 [1] [nM] | IC50 [2] [nM] | inhibition [3]
1 | Cc1cccc(-c2nn(CC(=O)Nc3cccc(C(N)=O)c3)cc2-c2ccc3ncccc3c2)n1 | 75 | > 1000 | –
2 | COc1ccnc2ccc(-c3cn(CCC(=O)Nc4cccc(C#N)c4)nc3-c3cccc(C)n3)cc12 | > 1000 | > 1000 | –
3 | Cc1cccc(-c2c(-c3ccc4ncccc4c3)cnn2CC(=O)Nc2cccc(C(N)=O)c2)n1 | > 1000 | > 1000 | –
4 | Cc1cccc(-c2c(-c3ccc4ncccc4c3)cnn2CC(=O)Nc2ccccc2)n1 | > 1000 | > 1000 | –
5 | Cc1cccc(-c2nn(CCC(=O)Nc3ccccc3)cc2-c2ccc3ncccc3c2)n1 | 25 | > 1000 | –
6 | Cc1cccc(-c2nn(CCC(=O)Nc3cccc(C#N)c3)cc2-c2ccc3ncccc3c2)n1 | 101 | > 1000 | –
7 | Cc1cccc(-c2nn(CC(=S)Nc3cccc(C#N)c3)cc2-c2ccc3ncccc3c2)n1 | 51 | > 1000 | –
8 | COc1ccnc2ccc(-c3cnn(CC(=O)Nc4ccccc4)c3-c3cccc(C)n3)cc12 | > 1000 | > 1000 | –
9 | COc1ccnc2ccc(-c3cn(CC(=O)Nc4ccccc4)nc3-c3cccc(C)n3)cc12 | > 1000 | > 1000 | –
10 | Cc1cccc(-c2nn(CC(=S)Nc3ccccc3)cc2-c2ccc3ncccc3c2)n1 | 94 | > 1000 | –
11 | Cc1cccc(-c2nn(CC(=O)Nc3cccc(C#N)c3)cc2-c2ccc3ncccc3c2)n1 | 22 | > 1000 | Dose-dependent effect
12 | Cc1cccc(-c2c(-c3ccc4ncccc4c3)cnn2CC(=O)Nc2cccc(C#N)c2)n1 | > 1000 | > 1000 | –
13 | Cc1cccc(-c2nn(CCC(=S)Nc3ccccc3)cc2-c2ccc3ncccc3c2)n1 | 88 | > 1000 | –
14 | COc1ccnc2ccc(-c3cn(CC(=O)Nc4cccc(C#N)c4)nc3-c3cccc(C)n3)cc12 | > 1000 | > 1000 | –
15 | COc1ccnc2ccc(-c3cnn(CC(=O)Nc4cccc(C#N)c4)c3-c3cccc(C)n3)cc12 | > 1000 | > 1000 | –
16 | Cc1cccc(-c2nn(CCC(=S)Nc3cccc(C#N)c3)cc2-c2ccc3ncccc3c2)n1 | 232 | 630 | –
17 | Cc1cccc(-c2nn(CC(=O)Nc3ccccc3)cc2-c2ccc3ncccc3c2)n1 | 207 | > 1000 | –
18 | Cc1cccc(-c2[nH]c(Cc3cccc(C(N)=O)c3)nc2-c2ccc3nccnc3c2)n1 | 17 | 480 | –
